pEC50: −log10 of the molar value.
Tests used:
[1] = tested on: Human fibrosarcoma cells (HT-1080 cells); assay: In vitro inhibitory action against ferroptosis (Erastin-induced cell death, Cell Counting Kit-8); type: cell-based; conditions: Erastin 3 μmol/L, 24 hours
[2] = In vitro radical scavenging action (DPPH method); conditions: 30 minutes at room temperature, maximum concentration 100 μmol/L
Description: Radical scavenging action was evaluated using the DPPH method in the compound of Comparative Example 1, which is a tetrahydroquinoxaline derivative, and in the tetrahydroquinoline derivative (I) or a pharmaceutically acceptable salt thereof. The DPPH method was performed using an antioxidant capacity measurement kit (Dojindo Laboratories).
A test compound was dissolved in DMSO, and the resulting solution was then mixed with an assay buffer and a DPPH solution, which are included in the kit, to a total volume of 200 μL to obtain a final concentration of 10% DMSO, and the reaction was allowed to proceed. Wells added with 100 μmol/L ferrostatin-1, a radical scavenger, were grouped as “control,” and wells added with not test compound were grouped as “background.” The test compound was serially diluted 3-fold starting from a maximum concentration of 100 μmol/L, and the diluted test compound (1.2, 3.7, 11.1, 33.3, or 100 μmol/L) was added and allowed to react at room temperature. Thirty minutes after the reaction, the absorbance at 517 nm was measured, and the average absorbance value was calculated (N=2). The radical scavenging action of the test compound (hereinafter referred to as radical scavenging rate, %) was calculated based on the equation 2 below. The EC50 value of the test compound was calculated from the radical scavenging rate. Radical scavenging rate (%)=[1−{(Average absorbance value at 517 nm measured when a test compound is added)−(Average absorbance value at 517 nm measured in the background)}/{(Average absorbance value at 517 nm measured in the control)−(Average absorbance value at 517 nm measured in the background)}]×100 Equation 2
A note “no detection of radical scavenging action (N.D.),” is given to compounds with a EC50 of >100 μmol/L.

[3] = evaluation concentration 50 μmol/L
[4] = evaluation concentration 30 μmol/L
[5] = evaluation concentration 10 μmol/L

FC(F)(F)c1ccc(C2CCc3ccccc3N2)cc1 (stereo not shown) [Example 29, 2-(4-(trifluoromethyl)phenyl)-1,2,3,4-tetrahydroquinoline]
Ferroptosis inhibition rate (%) [1, 3]: 95.38%
pEC50 [2]: < 4.00

Fc1ccc2c(c1)NC(c1ccccc1)CC2 (stereo not shown) [Example 68, 7-fluoro-2-phenyl-1,2,3,4-tetrahydroquinoline]
Ferroptosis inhibition rate (%) [1, 4]: 101.9%
pEC50 [2]: < 4.00

NC(=O)c1ccc(C2CCc3cc(F)ccc3N2)cc1 (stereo not shown) [Example 132, 4-(6-fluoro-1,2,3,4-tetrahydroquinolin-2-yl)benzamide]
Ferroptosis inhibition rate (%) [1, 4]: 105.6%
pEC50 [2]: < 4.00

NC(=O)Cc1ccc2c(c1)CCC(c1ccccc1)N2 (stereo not shown) [Example 60, 2-(2-phenyl-1,2,3,4-tetrahydroquinolin-6-yl)acetamide]
Ferroptosis inhibition rate (%) [1, 4]: 98.74%
pEC50 [2]: < 4.00

O=C(Cc1ccc2c(c1)CCC(c1ccccc1)N2)N1CC(F)(F)C1 (stereo not shown) [Example 160, 1-(3,3-difluoroazetidin-1-yl)-2-(2-phenyl-1,2,3,4-tetrahydroquinolin-6-yl)ethan-1-one]
Ferroptosis inhibition rate (%) [1, 5]: 99.11%
pEC50 [2]: < 4.00

Fc1cc2c(cc1F)NC(c1ccccc1)CC2 (stereo not shown) [Example 85, 6,7-difluoro-2-phenyl-1,2,3,4-tetrahydroquinoline]
Ferroptosis inhibition rate (%) [1, 3]: 94.94%
pEC50 [2]: < 4.00

Clc1cccc2c1CCC(c1ccccc1)N2 (stereo not shown) [Example 67, 5-chloro-2-phenyl-1,2,3,4-tetrahydroquinoline]
Ferroptosis inhibition rate (%) [1, 4]: 102.4%
pEC50 [2]: < 4.00

NC(=O)c1ccc(C2CCc3c(F)cccc3N2)cc1 (stereo not shown) [Example 137, 4-(5-fluoro-1,2,3,4-tetrahydroquinolin-2-yl)benzamide]
Ferroptosis inhibition rate (%) [1, 4]: 93.06%
pEC50 [2]: < 4.00

NC(=O)c1ccc(C2CCc3cc(Cl)ccc3N2)cc1 (stereo not shown) [Example 131, 4-(6-chloro-1,2,3,4-tetrahydroquinolin-2-yl)benzamide]
Ferroptosis inhibition rate (%) [1, 4]: 102.5%
pEC50 [2]: < 4.00

O=C(Cc1ccc2c(c1)CCC(c1ccccc1)N2)N1CCNCC1 (stereo not shown) [Example 158, 2-(2-phenyl-1,2,3,4-tetrahydroquinolin-6-yl)-1-(piperazin-1-yl)ethan-1-one]
Ferroptosis inhibition rate (%) [1, 4]: 55.98%
pEC50 [2]: < 4.00

Clc1ccc2c(c1)NC(c1ccccc1)CC2 (stereo not shown) [Example 69, 7-chloro-2-phenyl-1,2,3,4-tetrahydroquinoline]
Ferroptosis inhibition rate (%) [1, 4]: 106.4%
pEC50 [2]: < 4.00

NC(=O)c1ccc(C2CCc3cc(Cl)ccc3N2)cc1 (stereo not shown) [Example 122, 4-(6-chloro-1,2,3,4-tetrahydroquinolin-2-yl)benzamide]
Ferroptosis inhibition rate (%) [1, 5]: 97.59%
pEC50 [2]: < 4.00

CN(CCO)C(=O)Cc1ccc2c(c1)CCC(c1ccccc1)N2 (stereo not shown) [Example 150, N-(2-hydroxyethyl)-N-methyl-2-(2-phenyl-1,2,3,4-tetrahydroquino-lin-6-yl)acetamide]
Ferroptosis inhibition rate (%) [1, 4]: 106.9%
pEC50 [2]: < 4.00

Fc1ccc(C2CCc3ccccc3N2)cc1 (stereo not shown) [Example 26, 2-(4-fluorophenyl)-1,2,3,4-tetrahydroquinoline]
Ferroptosis inhibition rate (%) [1, 3]: 107.7%
pEC50 [2]: < 4.00

NS(=O)(=O)c1ccc(C2CCc3c(Cl)cccc3N2)cc1 (stereo not shown) [Example 134, 4-(5-chloro-1,2,3,4-tetrahydroquinolin-2-yl)benzenesulfonamide]
Ferroptosis inhibition rate (%) [1, 4]: 77.77%
pEC50 [2]: < 4.00

O=C(Cc1ccc2c(c1)CCC(c1ccccc1)N2)N1CC(F)(F)C1 (stereo not shown) [Example 149, 1-(3,3-difluoroazetidin-1-yl)-2-(2-phenyl-1,2,3,4-tetrahydroquinolin-6-yl)ethan-1-one]
Ferroptosis inhibition rate (%) [1, 4]: 99.36%
pEC50 [2]: < 4.00

NS(=O)(=O)c1ccc(C2CCc3c(F)cccc3N2)cc1 (stereo not shown) [Example 135, 4-(5-fluoro-1,2,3,4-tetrahydroquinolin-2-yl)benzenesulfonamide]
Ferroptosis inhibition rate (%) [1, 4]: 62.32%
pEC50 [2]: < 4.00

Cc1ccc2c(c1)NC(c1ccc(C(N)=O)cc1)CC2 (stereo not shown) [Example 106, 4-(7-methyl-1,2,3,4-tetrahydroquinolin-2-yl)benzamide]
Ferroptosis inhibition rate (%) [1, 4]: 111.7%
pEC50 [2]: < 4.00

Fc1cccc2c1CCC(c1ccccc1)N2 (stereo not shown) [Example 66, 5-fluoro-2-phenyl-1,2,3,4-tetrahydroquinoline]
Ferroptosis inhibition rate (%) [1, 4]: 101.5%
pEC50 [2]: < 4.00

O=C(Cc1ccc2c(c1)CCC(c1ccccc1)N2)N1CC(F)(F)C1 (stereo not shown) [Example 161, 1-(3,3-difluoroazetidin-1-yl)-2-(2-phenyl-1,2,3,4-tetrahydroquinolin-6-yl)ethan-1-one]
Ferroptosis inhibition rate (%) [1, 5]: 94.01%
pEC50 [2]: < 4.00

Cc1ccc2c(c1)CCC(c1ccc(S(N)(=O)=O)cc1)N2 (stereo not shown) [Example 120, 4-(6-methyl-1,2,3,4-tetrahydroquinolin-2-yl)benzenesulfonamide]
Ferroptosis inhibition rate (%) [1, 5]: 87.34%
pEC50 [2]: < 4.00

OCc1ccc2c(c1)CCC(c1ccccc1)N2 (stereo not shown) [Example 58, (2-phenyl-1,2,3,4-tetrahydroquinolin-6-yl)methanol]
Ferroptosis inhibition rate (%) [1, 4]: 91.37%
pEC50 [2]: < 4.00

N#Cc1ccc(C2CCc3ccccc3N2)cc1 (stereo not shown) [Example 35, 4-(1,2,3,4-tetrahydroquinolin-2-yl)benzonitrile]
Ferroptosis inhibition rate (%) [1, 4]: 106.5%
pEC50 [2]: < 4.00

O=C(Cc1ccc2c(c1)CCC(c1ccccc1)N2)N1CCC1 (stereo not shown) [Example 151, 1-(azetidin-1-yl)-2-(2-phenyl-1,2,3,4-tetrahydroquinolin-6-yl)ethan-1-one]
Ferroptosis inhibition rate (%) [1, 4]: 108.2%
pEC50 [2]: < 4.00

NS(=O)(=O)c1ccc(C2CCc3cc(Cl)ccc3N2)cc1 (stereo not shown) [Example 116, 4-(6-chloro-1,2,3,4-tetrahydro-quinolin-2-yl)benzenesulfonamide]
Ferroptosis inhibition rate (%) [1, 5]: 80.69%
pEC50 [2]: < 4.00

Cc1ccc2c(c1)NC(c1ccc(S(N)(=O)=O)cc1)CC2 (stereo not shown) [Example 105, 4-(7-methyl-1,2,3,4-tetrahydroquinolin-2-yl)benzenesulfonamide]
Ferroptosis inhibition rate (%) [1, 4]: 99.03%
pEC50 [2]: < 4.00

c1ccc([C@@H]2CCc3ccccc3N2)cc1 [Example 3, (S)-2-phenyl-1,2,3,4-tetrahydroquinoline]
Ferroptosis inhibition rate (%) [1, 4]: 110.2%
pEC50 [2]: < 4.00

O=C(Cc1ccc2c(c1)CCC(c1ccccc1)N2)N1CC(O)C1 (stereo not shown) [Example 62, 1-(3-hydroxyazetidin-1-yl)-2-(2-phenyl-1,2,3,4-tetrahydroquinolin-6-yl)ethan-1-one]
Ferroptosis inhibition rate (%) [1, 4]: 103.2%
pEC50 [2]: < 4.00

O=C(Cc1ccc2c(c1)CCC(c1ccccc1)N2)N1CCOCC1 (stereo not shown) [Example 145, 1-morpholino-2-(2-phenyl-1,2,3,4-tetrahydroquinolin-6-yl)ethan-1-one]
Ferroptosis inhibition rate (%) [1, 4]: 102.0%
pEC50 [2]: < 4.00

NS(=O)(=O)c1ccc(C2CCc3cc(F)ccc3N2)cc1 (stereo not shown) [Example 107, 4-(6-fluoro-1,2,3,4-tetrahydroquinolin-2-yl)benzenesulfonamide]
Ferroptosis inhibition rate (%) [1, 4]: 100.8%
pEC50 [2]: < 4.00

CC(C)(C)NC(=O)Cc1ccc2c(c1)CCC(c1ccccc1)N2 (stereo not shown) [Example 61, N-(tert-butyl)-2-(2-phenyl-1,2,3,4-tetrahydroquinolin-6-yl)acetamide]
Ferroptosis inhibition rate (%) [1, 4]: 103.9%
pEC50 [2]: < 4.00

c1ccc([C@H]2CCc3ccccc3N2)cc1 [Example 2, (R)-2-phenyl-1,2,3,4-tetrahydroquinoline]
Ferroptosis inhibition rate (%) [1, 4]: 117.4%
pEC50 [2]: < 4.00

Source: US12570639B2, “Tetrahydroquinoline derivative and medicinal use thereof” (Toray Industries, Inc., priority 2020, dated 2026)
